Experimental data reported in patent publication US20260191836A1, “SOLID PREPARATION CONTAINING OXIDIZED CLOPIDOGREL AND PREPARATION METHOD THEREFOR” (CHENGDU SHIBEIKANG BIOMEDICAL TECHNOLOGY CO., LTD., priority 2022, published 2026).
Entries after “also recorded” stand apart in the source; their conditions may differ.

Test: Properties of the drug substance (solubility, BCS class, stability)
Type: physicochemical

COC(=O)[C@H](c1ccccc1Cl)N1CC[C@@H]2SC(=O)C=C2C1 [(7aS, 2′S)-2-oxo-clopidogrel, methyl (S)-2-(2-chlorophenyl)-2-((S)-2-oxo-2,6,7,7a-tetrahydrothieno[3,2-c]pyridin-5 (4H)-yl)acetate]
BCS biopharmaceutical classification: low-solubility and high-permeability
stability of the drug substance (in words): extremely prone to oxidative degradation; also recorded: instability under high temperature, acid and alkali conditions
solubility in acetonitrile (acetonitrile): soluble
solubility in methanol (methanol): slightly soluble
solubility in water (water): almost insoluble
